According to patent publication US20260165323A1, “USE OF STROBILURIN TYPE COMPOUNDS FOR COMBATING PHYTOPATHOGENIC FUNGI CONTAINING AN AMINO ACID SUBSTITUTION F129L IN THE MITOCHONDRIAL CYTOCHROME B PROTEIN CONFERRING RESISTANCE TO QO […]” (priority 2022, published 2026):

Legend:
Assay type in all cases: in vivo
[1] = system: Phakopsora pachyrhizi containing the amino acid substitution F129L in the mitochondrial cytochrome b protein; assay: Use Example 1: protective control of soybean rust on soybeans (PHAKPA P2); conditions: inoculated 2 days after spraying, % diseased leaf area
Method in brief: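 Soybean seedling leaves sprayed to run-off with compound in acetone/DMSO–Wettol–water at the stated concentration, kept 2 days at 23-27° C, then inoculated with Qo-inhibitor-resistant F129L P. pachyrhizi. After 24 h at ~95% RH, 20-24° C, and up to 14 days in greenhouse, % diseased leaf area scored visually.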

[2] = system: Phakopsora pachyrhizi containing the amino acid substitution F129L in the mitochondrial cytochrome b protein; assay: Use Example 2: protective control of soybean rust on soybeans (PHAKPA P6); conditions: inoculated six days after spraying, % diseased leaf area
Method in brief: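 Compound in acetone and/or DMSO with Wettol (99:1), diluted with water, was sprayed to run-off on potted soybean seedlings. After six days at 23–27°C and 60–80% RH, plants were inoculated with a Qo-resistant F129L strain and held 24 h at about 95% RH. Percent diseased leaf area was scored visually after up to 14 days.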

Puccinia recondita [3] = assay: Use Example 3: curative control of brown rust on wheat (PUCCRT K4); conditions: % diseased leaf area
Method in brief: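 Wheat seedlings inoculated with Puccinia recondita spores, held 24 h at 95–99% RH, 20–24° C in dark, then 3 days in greenhouse before spraying to run-off (curative). Compound in acetone/DMSO–Wettol–water. After 5–7 further days at 20–24° C, 65–70% RH, % diseased leaf area scored visually.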

Puccinia recondita [4] = assay: Use Example 4: preventative control of brown rust on wheat (PUCCRT P7); conditions: inoculated seven days after spraying, % diseased leaf area
Method in brief: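 First two leaves of potted wheat seedlings sprayed to run-off with compound in acetone/DMSO–emulsifier–water, then inoculated with Puccinia recondita spores seven days later. Plants held 24 h dark at 95–99% RH and 20–24 °C, then 9–11 days in greenhouse; diseased leaf area (%) scored visually.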

SMILES	% PHAKPA (F129L) Disease level P2 at 4 ppm [1] [%]	% PHAKPA (F129L) Disease level P2 at 16 ppm [1] [%]	% PHAKPA (F129L) Disease level P6 at 4 ppm [2] [%]	% PHAKPA (F129L) Disease level P6 at 16 ppm [2] [%]	% PUCCRT Disease level K4 at 4 ppm (Puccinia recondita [3]) [%]	% PUCCRT Disease level K4 at 16 ppm (Puccinia recondita [3]) [%]	% PUCCRT Disease level P7 at 4 ppm (Puccinia recondita [4]) [%]	% PUCCRT Disease level P7 at 16 ppm (Puccinia recondita [4]) [%]
CCOC/C(=N\OCc1c(Cl)cccc1/C(=N\OC)C(=O)NC)c1cccc(Cl)c1 [compound 40]	15	1	33	4	73	40	30	4
CNC(=O)/C(=N/OC)c1cccc(Cl)c1CO/N=C(\COC)c1ccccc1Cl [compound 50]	92	32	87	36	75	72	70	33
CCOC/C(=N\OCc1c(Cl)cccc1/C(=N\OC)C(=O)OC)c1ccccc1 [compound 53]	88	57	93	80	83	78	87	78
CO/C=C(/C(=O)OC)c1cccc(Cl)c1CO/N=C(/C#Cc1ccc(F)cc1)COC [compound 7, Methyl (E)-2-[3-chloro-2-[[(Z)-[3-(4-fluorophenyl)-1-(methoxymethyl)prop-2-ynylidene]amino]oxymethyl]phenyl]-3-methoxy-prop-2-enoate]	2	0	11	0	70	50	35	4
CNC(=O)/C(=N/OC)c1cccc(Cl)c1CO/N=C(\COC)c1cccc(F)c1 [compound 41]	3	0	14	1	72	12	23	4
CCOC/C(=N\OCc1c(Br)cccc1/C(=C\OC)C(=O)OC)c1ccc(F)cc1 [compound 66]	11	1	13	1	62	8	27	4
CNC(=O)/C(=N/OC)c1cccc(Cl)c1CO/N=C(\COC)c1c(F)cc(Cl)cc1F [compound 102]	21	1	16	2	80	36	32	6
CNC(=O)/C(=N/OC)c1cccc(Cl)c1CO/N=C(\COC)c1ccc(F)cc1F [compound 84]	5	0	2	0	58	9	35	5
CO/C=C(/C(=O)OC)c1cccc(Cl)c1CO/N=C(\COC)c1ccccc1C [compound 123]	41	2	38	7	72	21	77	33
CNC(=O)/C(=N/OC)c1cccc(Cl)c1CO/N=C(/C#Cc1ccc(F)cc1)COC [compound 6, (2E)-2-[3-chloro-2-[[(Z)-[3-(4-fluorophenyl)-1-(methoxymethyl)prop-2-ynylidene]amino]oxymethyl]phenyl]-2-methoxyimino-N-methyl-acetamide]	8	0	28	5	38	2	8	0
